Assay [1] deals with MAP kinase p38 (Homo sapiens) (UniProt O15264+Q15759+Q16539+P53778). Nature of the assay: Inhibition of human full length p38 beta2 expressed in Escherichia coli cell assessed as substrate phosphorylation using fluorescence-labelled peptides as substrate at 8 uM after 90 mins by microfluidic peptide phosphorylation assay.
Assay [2] deals with T1, Serine/threonine-protein kinase DCLK2 (Homo sapiens) (UniProt Q8N568).
T1 sequence (whole entry): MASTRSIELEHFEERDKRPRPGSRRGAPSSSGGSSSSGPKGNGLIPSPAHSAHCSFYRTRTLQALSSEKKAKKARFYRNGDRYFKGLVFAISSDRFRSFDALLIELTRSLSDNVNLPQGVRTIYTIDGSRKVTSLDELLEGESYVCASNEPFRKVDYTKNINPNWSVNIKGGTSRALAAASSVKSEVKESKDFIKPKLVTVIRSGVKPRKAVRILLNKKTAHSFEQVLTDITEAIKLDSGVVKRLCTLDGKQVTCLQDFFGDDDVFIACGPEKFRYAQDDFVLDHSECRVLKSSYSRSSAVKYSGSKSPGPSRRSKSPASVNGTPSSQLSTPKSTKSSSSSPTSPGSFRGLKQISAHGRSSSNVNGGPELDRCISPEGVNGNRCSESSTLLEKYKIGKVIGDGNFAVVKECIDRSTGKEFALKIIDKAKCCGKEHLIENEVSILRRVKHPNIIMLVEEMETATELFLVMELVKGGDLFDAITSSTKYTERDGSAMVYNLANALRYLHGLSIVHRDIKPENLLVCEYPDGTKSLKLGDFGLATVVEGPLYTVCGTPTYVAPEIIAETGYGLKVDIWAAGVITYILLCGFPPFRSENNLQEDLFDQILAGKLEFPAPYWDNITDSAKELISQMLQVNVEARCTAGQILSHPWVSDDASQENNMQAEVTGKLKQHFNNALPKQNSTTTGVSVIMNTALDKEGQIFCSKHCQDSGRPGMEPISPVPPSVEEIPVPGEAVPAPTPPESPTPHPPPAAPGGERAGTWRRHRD
Kind of assay: Inhibition of human full length DCAMKL2 expressed in baculovirus assessed as substrate phosphorylation using fluorescence-labelled peptides as substrate at 420 uM after 90 mins by microfluidic peptide phosphorylation assay.

For assay [3], the target named is T2, Serine/threonine-protein kinase 3 (Homo sapiens) (UniProt Q13188).
T2 sequence (whole entry): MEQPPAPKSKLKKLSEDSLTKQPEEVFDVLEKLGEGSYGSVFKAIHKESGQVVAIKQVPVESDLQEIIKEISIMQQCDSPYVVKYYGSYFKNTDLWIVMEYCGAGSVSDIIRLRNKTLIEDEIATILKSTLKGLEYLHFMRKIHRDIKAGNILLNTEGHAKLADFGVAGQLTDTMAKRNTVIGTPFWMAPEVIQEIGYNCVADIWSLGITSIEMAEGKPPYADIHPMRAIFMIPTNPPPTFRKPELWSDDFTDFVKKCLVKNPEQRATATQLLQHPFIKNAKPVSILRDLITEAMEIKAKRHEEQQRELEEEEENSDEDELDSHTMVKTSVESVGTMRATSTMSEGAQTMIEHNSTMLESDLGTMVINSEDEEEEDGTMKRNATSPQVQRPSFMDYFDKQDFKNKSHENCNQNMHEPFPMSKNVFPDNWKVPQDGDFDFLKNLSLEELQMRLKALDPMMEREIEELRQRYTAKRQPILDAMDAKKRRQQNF
Kind of assay: Inhibition of human full length MST2 expressed in baculovirus assessed as substrate phosphorylation using fluorescence-labelled peptides as substrate at 0.2 uM after 90 mins by microfluidic peptide phosphorylation assay.

Assay [4] concerns the target T3, Calcium/calmodulin-dependent protein kinase type IV (Homo sapiens) (UniProt Q16566).
T3 sequence (whole entry): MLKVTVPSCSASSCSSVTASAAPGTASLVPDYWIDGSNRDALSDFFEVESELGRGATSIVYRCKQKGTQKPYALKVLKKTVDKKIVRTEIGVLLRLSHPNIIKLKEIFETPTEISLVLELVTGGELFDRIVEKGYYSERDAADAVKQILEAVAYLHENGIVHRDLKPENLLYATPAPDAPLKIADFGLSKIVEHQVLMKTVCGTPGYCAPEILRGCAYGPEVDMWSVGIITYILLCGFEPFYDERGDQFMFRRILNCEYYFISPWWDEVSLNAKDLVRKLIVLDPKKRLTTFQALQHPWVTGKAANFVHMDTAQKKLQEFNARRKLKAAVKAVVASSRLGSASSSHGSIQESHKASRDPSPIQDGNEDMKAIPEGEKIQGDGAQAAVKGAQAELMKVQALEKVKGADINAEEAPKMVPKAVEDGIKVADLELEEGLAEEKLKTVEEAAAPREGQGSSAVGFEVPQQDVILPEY
Kind of assay: Inhibition of human full length CAMK4 expressed in baculovirus assessed as substrate phosphorylation using fluorescence-labelled peptides as substrate at 0.2 uM after 90 mins by microfluidic peptide phosphorylation assay.

Assay [5] has as its target T4, Serine/threonine-protein kinase Sgk2 (Homo sapiens) (UniProt Q9HBY8).
T4 sequence (whole entry): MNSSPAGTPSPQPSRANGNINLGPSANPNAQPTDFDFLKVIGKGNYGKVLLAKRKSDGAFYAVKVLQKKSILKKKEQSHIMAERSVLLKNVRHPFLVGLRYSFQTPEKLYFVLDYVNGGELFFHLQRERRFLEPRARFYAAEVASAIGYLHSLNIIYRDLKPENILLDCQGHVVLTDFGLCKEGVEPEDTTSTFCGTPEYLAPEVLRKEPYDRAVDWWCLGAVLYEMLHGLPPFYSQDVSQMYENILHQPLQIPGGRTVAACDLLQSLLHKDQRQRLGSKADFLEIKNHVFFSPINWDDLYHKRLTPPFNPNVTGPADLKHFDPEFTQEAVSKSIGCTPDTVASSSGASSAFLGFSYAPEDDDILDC
Kind of assay: Inhibition of human full length SGK2 expressed in baculovirus assessed as substrate phosphorylation using fluorescence-labelled peptides as substrate at 9 uM after 90 mins by microfluidic peptide phosphorylation assay.

Assay [6] concerns the target Tyrosine-protein kinase Lyn (Homo sapiens) (UniProt P07948). Kind of assay: Inhibition of human full length LYN expressed in baculovirus assessed as substrate phosphorylation using fluorescence-labelled peptides as substrate at 70 uM after 90 mins by microfluidic peptide phosphorylation assay.
In assay [7] the target is Tyrosine-protein kinase HCK (Homo sapiens) (UniProt P08631). Kind of assay: Inhibition of human HCK catalytic domain expressed in baculovirus assessed as substrate phosphorylation using fluorescence-labelled peptides as substrate at 95 uM after 90 mins by microfluidic peptide phosphorylation assay.
Assay [8] has as its target Glycogen synthase kinase-3 beta (Homo sapiens) (UniProt P49841). Nature of the assay: Inhibition of human full length GSK-3 beta expressed in baculovirus assessed as substrate phosphorylation using fluorescence-labelled peptides as substrate at […] after 90 mins by microfluidic peptide phosphorylation assay.

This is an account of results in ChEMBL document CHEMBL3132769, “Fragment growing to retain or alter the selectivity of anchored kinase hinge-binding fragments” (Medchemcomm, 2014).

By inhibition is commonly meant the percentage by which the read-out fell short of the control.

Glycogen synthase kinase-3 beta (Homo sapiens), sequence (P49841 whole entry, looked up): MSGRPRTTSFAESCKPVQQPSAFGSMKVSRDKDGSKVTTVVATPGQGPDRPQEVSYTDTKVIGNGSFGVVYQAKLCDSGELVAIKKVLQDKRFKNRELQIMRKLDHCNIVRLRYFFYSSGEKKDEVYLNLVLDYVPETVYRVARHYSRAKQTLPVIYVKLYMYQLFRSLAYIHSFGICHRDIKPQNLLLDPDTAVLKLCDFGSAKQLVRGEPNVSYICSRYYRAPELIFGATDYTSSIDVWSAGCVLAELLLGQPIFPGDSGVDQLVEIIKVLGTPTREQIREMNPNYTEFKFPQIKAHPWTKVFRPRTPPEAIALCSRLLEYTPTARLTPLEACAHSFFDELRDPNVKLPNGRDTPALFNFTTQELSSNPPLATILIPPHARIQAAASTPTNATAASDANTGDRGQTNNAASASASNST
Tyrosine-protein kinase Lyn (Homo sapiens), sequence (P07948 2-512 limits assumed): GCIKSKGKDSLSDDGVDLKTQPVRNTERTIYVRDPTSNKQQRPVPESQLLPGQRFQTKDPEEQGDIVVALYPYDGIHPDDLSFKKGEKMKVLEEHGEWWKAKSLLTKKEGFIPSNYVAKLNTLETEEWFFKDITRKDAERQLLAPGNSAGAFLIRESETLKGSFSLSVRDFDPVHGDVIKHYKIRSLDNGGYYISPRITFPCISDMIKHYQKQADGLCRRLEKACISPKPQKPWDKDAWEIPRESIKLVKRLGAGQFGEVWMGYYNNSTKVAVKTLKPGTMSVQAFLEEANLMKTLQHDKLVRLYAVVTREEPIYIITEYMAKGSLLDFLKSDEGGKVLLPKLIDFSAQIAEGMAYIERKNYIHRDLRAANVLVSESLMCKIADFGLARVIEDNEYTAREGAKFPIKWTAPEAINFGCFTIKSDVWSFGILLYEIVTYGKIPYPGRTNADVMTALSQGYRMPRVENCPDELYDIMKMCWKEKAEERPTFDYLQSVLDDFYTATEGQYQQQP
Tyrosine-protein kinase HCK (Homo sapiens), sequence (P08631 2-526 limits assumed): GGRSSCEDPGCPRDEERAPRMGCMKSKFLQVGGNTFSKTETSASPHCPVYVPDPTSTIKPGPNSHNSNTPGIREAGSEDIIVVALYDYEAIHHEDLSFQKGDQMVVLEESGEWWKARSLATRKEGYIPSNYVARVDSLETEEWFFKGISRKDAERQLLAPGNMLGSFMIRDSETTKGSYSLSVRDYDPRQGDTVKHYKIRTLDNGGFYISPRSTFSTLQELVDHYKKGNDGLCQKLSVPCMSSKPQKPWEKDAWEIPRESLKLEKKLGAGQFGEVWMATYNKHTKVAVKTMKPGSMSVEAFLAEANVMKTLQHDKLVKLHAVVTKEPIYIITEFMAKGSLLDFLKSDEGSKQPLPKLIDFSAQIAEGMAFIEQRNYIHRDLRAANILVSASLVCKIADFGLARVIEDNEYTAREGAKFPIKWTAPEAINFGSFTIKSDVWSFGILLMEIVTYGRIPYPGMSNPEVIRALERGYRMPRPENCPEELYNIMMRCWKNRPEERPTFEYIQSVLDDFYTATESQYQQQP

On to `NCC1CCN(c2ncnc3[nH]ccc23)CC1`, for which the inhibition in assay [1] turned out to be 12.5%.

Consider `c1nc(N2CCOCC2)c2nc[nH]c2n1`, for which the inhibition in assay [2] turned out to be 41.5%.

For the compound `Clc1ccc(C2(c3ccc(-c4ncnc5[nH]cnc45)cc3)CCNCC2)cc1`, the inhibition in assay [3] stood at 2%; in assay [4], 74%.

With `NCC1CN(c2ncnc3[nH]c4cnccc4c23)CCO1` (stereo not drawn), the inhibition in assay [5] is 48.5%.

As to `CNCc1ccc(-c2ncnc3[nH]cnc23)cc1`, the inhibition in assay [6] is 35%.

For the compound `NCCc1ccc(-c2ncnc3[nH]cnc23)cc1`, in assay [7], the inhibition turned out to be 48.5%.

`COC(=O)c1cnc(Nc2cnc(C#N)cn2)cc1NCC1CCNCC1`: the inhibition in assay [8] amounted to 3.5%.
